Measurements from PubChem BioAssay AID248 (DTP/NCI, 2004).
“And” between values parts separate entries of the source, which are not always exact repeats. Equal values may be shown once. Inconclusive results and toxic doses are left out.

Test system: L1210 leukemia ip in BDF1 mice, survival T/C
Experiment: NCI In Vivo Anticancer Drug Screen. Data for tumor model L1210 Leukemia (intraperitoneal) in B6D2F1 (BDF1) mice
Conditions: endpoint: mean survival time, higher = longer survival
Procedure, shortened: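 Survival endpoint. Drug-treated group vs vehicle group, expressed as T divided by C. Tumor passaged by transplantation.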

[1] = dose: 100.0 mg/kg/injection, schedule: Q01DX009 (ip), vehicle: saline with Tween-80
[2] = dose: 200.0 mg/kg/injection, schedule: Q01DX009 (ip), vehicle: saline with Tween-80
[3] = dose: 400.0 mg/kg/injection, schedule: Q01DX009 (ip), vehicle: saline with Tween-80
[4] = dose: 100.0 mg/kg/injection, schedule: Q04DX003 (ip), vehicle: saline with Tween-80
[5] = dose: 200.0 mg/kg/injection, schedule: Q04DX003 (ip), vehicle: saline with Tween-80
[6] = dose: 400.0 mg/kg/injection, schedule: Q04DX003 (ip), vehicle: saline with Tween-80
[7] = dose: 100.0 mg/kg/injection, schedule: Q04DX002 (ip), vehicle: saline
[8] = dose: 200.0 mg/kg/injection, schedule: Q04DX002 (ip), vehicle: saline
[9] = dose: 400.0 mg/kg/injection, schedule: Q04DX002 (ip), vehicle: saline
[10] = dose: 100.0 mg/kg/injection, schedule: Q01DX001 (ip), vehicle: carboxymethylcellulose (CMC)
[11] = dose: 200.0 mg/kg/injection, schedule: Q01DX001 (ip), vehicle: carboxymethylcellulose (CMC)
[12] = dose: 400.0 mg/kg/injection, schedule: Q01DX001 (ip), vehicle: carboxymethylcellulose (CMC)
[13] = dose: 50.0 mg/kg/injection, schedule: Q01DX001 (ip), vehicle: Klucel (hydroxypropylcellulose) (HPC)
[14] = dose: 100.0 mg/kg/injection, schedule: Q01DX001 (ip), vehicle: Klucel (hydroxypropylcellulose) (HPC)
[15] = dose: 200.0 mg/kg/injection, schedule: Q01DX001 (ip), vehicle: Klucel (hydroxypropylcellulose) (HPC)
[16] = dose: 100.0 mg/kg/injection, schedule: Q04DX002 (ip), vehicle: Klucel (hydroxypropylcellulose) (HPC)
[17] = dose: 200.0 mg/kg/injection, schedule: Q04DX002 (ip), vehicle: Klucel (hydroxypropylcellulose) (HPC)
[18] = dose: 400.0 mg/kg/injection, schedule: Q04DX002 (ip), vehicle: Klucel (hydroxypropylcellulose) (HPC)
[19] = dose: 100.0 mg/kg/injection, schedule: Q01DX001 (ip), vehicle: saline
[20] = dose: 200.0 mg/kg/injection, schedule: Q01DX001 (ip), vehicle: saline
[21] = dose: 400.0 mg/kg/injection, schedule: Q01DX001 (ip), vehicle: saline
[22] = dose: 400.0 mg/kg/injection, schedule: Q01DX001 (ip), vehicle: Klucel (hydroxypropylcellulose) (HPC)
[23] = dose: 100.0 mg/kg/injection, schedule: Q04DX003 (ip), vehicle: Klucel (hydroxypropylcellulose) (HPC)
[24] = dose: 200.0 mg/kg/injection, schedule: Q04DX003 (ip), vehicle: Klucel (hydroxypropylcellulose) (HPC)
[25] = dose: 400.0 mg/kg/injection, schedule: Q04DX003 (ip), vehicle: Klucel (hydroxypropylcellulose) (HPC)

Cc1ccc(S(=O)(=O)NCCCCCC(=O)OCc2ccccc2)cc1
T/C (dose: 50.0 mg/kg/injection, schedule: Q01DX009 (ip), vehicle: saline): 97 % of control
T/C (dose: 100.0 mg/kg/injection, schedule: Q01DX009 (ip), vehicle: saline): 94 % of control and 100 % of control
T/C (dose: 100.0 mg/kg/injection, schedule: Q04DX003 (ip), vehicle: saline): 108 % of control
T/C (dose: 200.0 mg/kg/injection, schedule: Q01DX009 (ip), vehicle: saline): 96 % of control and 104 % of control
T/C (dose: 200.0 mg/kg/injection, schedule: Q04DX003 (ip), vehicle: saline): 101 % of control
T/C (dose: 400.0 mg/kg/injection, schedule: Q01DX009 (ip), vehicle: saline): 94 % of control
T/C (dose: 400.0 mg/kg/injection, schedule: Q04DX003 (ip), vehicle: saline): 100 % of control

O=C1NC(=O)C(c2ccccn2)N1 (stereo not drawn)
T/C [1]: 91 % of control
T/C [2]: 91 % of control
T/C [3]: 94 % of control

O=C(NC(Cc1ccccc1)C(=O)O)OCc1ccccc1 (stereo not drawn)
T/C [1]: 98 % of control
T/C [4]: 105 % of control
T/C [2]: 98 % of control
T/C [5]: 94 % of control
T/C [3]: 88 % of control
T/C [6]: 96 % of control

C=COCCCCCC
T/C [7]: 103 % of control
T/C [8]: 100 % of control
T/C [9]: 90 % of control

O=C(/C=C(\OB(F)F)c1ccccc1)c1ccccc1
T/C (dose: 50.0 mg/kg/injection, schedule: Q01DX001 (ip), vehicle: carboxymethylcellulose (CMC)): 102 % of control
T/C [10]: 94 % of control
T/C [11]: 100 % of control
T/C [12]: 90 % of control

COC(=O)/C=C(/Nc1cccc2ccccc12)C(=O)OC
T/C [13]: 102 % of control
T/C [14]: 96 % of control
T/C [15]: 114 % of control

CC1(O)C2CC3CC(C2)CC1C3 (stereo not drawn)
T/C [16]: 113 % of control
T/C [17]: 98 % of control and 87 % of control
T/C [18]: 94 % of control

CC1=CP(=O)(c2ccccc2)CC1 (stereo not drawn)
T/C [19]: 102 % of control
T/C [20]: 102 % of control
T/C [21]: 105 % of control

CC12CC3(O)OC(O1)C1(COC(=O)c4ccccc4)C3CC21OC1OC(CO)C(O)C(O)C1O (stereo not drawn)
T/C [7]: 107 % of control
T/C [8]: 107 % of control
T/C [9]: 114 % of control

CCN(CCCl)CC1C(c2ccccc2)C1c1ccccc1 (stereo not drawn)
T/C (dose: 25.0 mg/kg/injection, schedule: Q04DX002 (ip), vehicle: Klucel (hydroxypropylcellulose) (HPC)): 94 % of control
T/C (dose: 50.0 mg/kg/injection, schedule: Q04DX002 (ip), vehicle: Klucel (hydroxypropylcellulose) (HPC)): 87 % of control

Cc1cc([N+](=O)[O-])ccc1P(=O)(O)O
T/C [4]: 100 % of control
T/C [5]: 108 % of control

CCCC(Sc1ncnc2nc[nH]c12)C(=O)O (stereo not drawn)
T/C [10]: 95 % of control
T/C [11]: 98 % of control
T/C [12]: 103 % of control

ClC1=C(Cl)C2(Cl)C3C4CC(C(I)C4I)C3C1(Cl)C2(Cl)Cl (stereo not drawn)
T/C (dose: 75.0 mg/kg/injection, schedule: Q01DX001 (ip), vehicle: other): 98 % of control
T/C (dose: 150.0 mg/kg/injection, schedule: Q01DX001 (ip), vehicle: other): 95 % of control

[N-]=[N+]=C1N=C(Cl)N=C1c1ncn[nH]1
T/C (dose: 25.0 mg/kg/injection, schedule: Q01DX001 (ip), vehicle: Klucel (hydroxypropylcellulose) (HPC)): 97 % of control
T/C [13]: 108 % of control
T/C [14]: 102 % of control and 112 % of control
T/C [22]: 112 % of control

CCN(CC)CCNc1ccccc1Cl
T/C [19]: 101 % of control
T/C [20]: 101 % of control

CC(=O)OCCOC(=O)Nc1cccc2ccccc12
T/C [16]: 100 % of control
T/C [17]: 100 % of control
T/C [18]: 97 % of control

COP(=O)(NC(C)=O)OC
T/C (dose: 100.0 mg/kg/injection, schedule: Q04DX002 (ip), vehicle: saline with Tween-80): 108 % of control
T/C (dose: 200.0 mg/kg/injection, schedule: Q04DX002 (ip), vehicle: saline with Tween-80): 102 % of control
T/C (dose: 400.0 mg/kg/injection, schedule: Q04DX002 (ip), vehicle: saline with Tween-80): 150 % of control

O=C(Nc1ccccc1)OCCc1c2ccccc2[n+]([O-])c2ccccc12
T/C [4]: 91 % of control
T/C [5]: 91 % of control
T/C [6]: 102 % of control

COc1cc(OC)c(NC2=CC(c3ccc(Cl)cc3)OC2=O)cc1Cl (stereo not drawn)
T/C [14]: 92 % of control
T/C [23]: 92 % of control
T/C [15]: 94 % of control
T/C [24]: 95 % of control
T/C [22]: 92 % of control
T/C [25]: 95 % of control

O=C(O)c1cccnc1
T/C (dose: 25.0 mg/kg/injection, schedule: Q01DX009 (ip), vehicle: Klucel (hydroxypropylcellulose) (HPC)): 103 % of control
T/C (dose: 25.0 mg/kg/injection, schedule: Q04DX003 (ip), vehicle: Klucel (hydroxypropylcellulose) (HPC)): 91 % of control
T/C (dose: 50.0 mg/kg/injection, schedule: Q01DX009 (ip), vehicle: Klucel (hydroxypropylcellulose) (HPC)): 100 % of control
T/C (dose: 50.0 mg/kg/injection, schedule: Q04DX003 (ip), vehicle: Klucel (hydroxypropylcellulose) (HPC)): 89 % of control
T/C (dose: 100.0 mg/kg/injection, schedule: Q01DX009 (ip), vehicle: Klucel (hydroxypropylcellulose) (HPC)): 96 % of control
T/C [23]: 100 % of control
T/C (dose: 200.0 mg/kg/injection, schedule: Q01DX009 (ip), vehicle: Klucel (hydroxypropylcellulose) (HPC)): 95 % of control
T/C [24]: 91 % of control
T/C [25]: 107 % of control

O=C(O)c1ccccc1/C=N/N1C(=O)CSC1=S
T/C (dose: 2.5 mg/kg/injection, schedule: Q01DX001 (ip), vehicle: carboxymethylcellulose (CMC)): 97 % of control
T/C (dose: 5.0 mg/kg/injection, schedule: Q01DX001 (ip), vehicle: carboxymethylcellulose (CMC)): 97 % of control
T/C (dose: 10.0 mg/kg/injection, schedule: Q01DX001 (ip), vehicle: carboxymethylcellulose (CMC)): 109 % of control

Cc1ccc(-c2nc(N)[nH]c(=O)c2CCCN(c2ccccc2)S(=O)(=O)c2ccc(C)cc2)cc1
T/C [23]: 102 % of control
T/C [24]: 101 % of control
T/C [25]: 102 % of control

COc1ccccc1CC(=O)Oc1ccccc1
T/C [19]: 97 % of control
T/C [20]: 96 % of control
T/C [21]: 102 % of control

N.N.N.N.N.N#CN=C(N)N.[Co+3].[O-][Cl+3]([O-])([O-])[O-]
T/C [7]: 171 % of control

CCC(Cl)COP(=O)(OCC(Cl)CC)C(OP(=S)(OCC(Cl)CC)OCC(Cl)CC)c1ccc(Cl)c(Cl)c1 (stereo not drawn)
T/C (dose: 25.0 mg/kg/injection, schedule: Q04DX002 (sc), vehicle: olive oil, sesame oil, peanut oil): 123 % of control
T/C (dose: 50.0 mg/kg/injection, schedule: Q04DX002 (sc), vehicle: olive oil, sesame oil, peanut oil): 108 % of control
T/C (dose: 100.0 mg/kg/injection, schedule: Q04DX002 (sc), vehicle: olive oil, sesame oil, peanut oil): 118 % of control

OC(c1cc(Nc2ccc(Cl)cc2)nc2ccccc12)C1CCCCN1 (stereo not drawn)
T/C [23]: 95 % of control
T/C [24]: 101 % of control

Cc1cc(Cl)ccc1NC(C)(C)C
T/C (dose: 75.0 mg/kg/injection, schedule: Q04DX002 (ip), vehicle: Klucel (hydroxypropylcellulose) (HPC)): 104 % of control
T/C (dose: 150.0 mg/kg/injection, schedule: Q04DX002 (ip), vehicle: Klucel (hydroxypropylcellulose) (HPC)): 108 % of control
T/C (dose: 300.0 mg/kg/injection, schedule: Q04DX002 (ip), vehicle: Klucel (hydroxypropylcellulose) (HPC)): 104 % of control

O=C(COc1cccc(Cl)c1Cl)Nc1cccnc1
T/C [4]: 102 % of control
T/C [5]: 96 % of control
T/C [6]: 98 % of control

O=C1CC2CC1C1CC(Br)C(Br)C21 (stereo not drawn)
T/C (dose: 100.0 mg/kg/injection, schedule: Q04DX003 (ip), vehicle: acetone): 97 % of control
T/C (dose: 200.0 mg/kg/injection, schedule: Q04DX003 (ip), vehicle: acetone): 97 % of control
T/C (dose: 400.0 mg/kg/injection, schedule: Q04DX003 (ip), vehicle: acetone): 92 % of control
